Results published in PubChem BioAssay (NCI).
Several values for one entry are separate records, joined by “and”; a condition that tells them apart may be missing. Identical values can stand only once.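 These data come from cells grown in 96-well plates and exposed to compound for 48 hours at five concentrations. GI50 is the concentration that inhibits growth by half. Definition used: TGI = concentration required for complete inhibition of growth.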

How the values were obtained:
Assay in all cases: NCI anticancer screen, dose series, 48 h
DMS 273 small cell lung = test system: DMS 273 small cell lung
HCT-116 colon = test system: HCT-116 colon
COLO 205 colon = test system: COLO 205 colon
ACHN renal = test system: ACHN renal
HOP-18 NSCLC = test system: HOP-18 NSCLC
A549 NSCLC = test system: A549 NSCLC
EKVX NSCLC = test system: EKVX NSCLC
LXFL 529 NSCLC = test system: LXFL 529 NSCLC
MDA-MB-231 breast = test system: MDA-MB-231 breast
MDA-MB-435 = test system: MDA-MB-435

SMILES | TGI (DMS 273 small cell lung) [µM] | TGI (HCT-116 colon) | TGI (COLO 205 colon) | TGI (ACHN renal) | TGI (HOP-18 NSCLC) | TGI (A549 NSCLC) | TGI (EKVX NSCLC) | TGI (LXFL 529 NSCLC) [µM] | TGI (MDA-MB-231 breast) | TGI (MDA-MB-435) [µM] | GI50 (MDA-MB-231 breast) [µM] | GI50 (MDA-MB-435) [µM] | GI50 (HCT-116 colon) | GI50 (COLO 205 colon) | GI50 (ACHN renal) | GI50 (A549 NSCLC) | GI50 (EKVX NSCLC) | GI50 (DMS 273 small cell lung) | GI50 (HOP-18 NSCLC)
COc1cccc(/C=C2\CCC(C)(CN(C)C)C2=O)c1 (stereo unspecified) | > 100 | > 100 µM | > 100 µM | > 100 µM | > 100 µM | > 100 µM | > 100 µM | – | – | – | – | – | – | – | – | – | – | – | –
O=C(NC12CC3CC(CC(C3)C1)C2)C(=O)c1c[nH]c2ccc(Cl)cc12 | > 100 | > 100 µM | > 100 µM | > 100 µM | – | > 100 µM | > 100 µM | > 100 | – | – | – | – | – | – | – | – | – | – | –
OC(c1ccc(Br)cc1)(c1cccs1)C1CC1 (stereo unspecified) | – | 33.3 µM | 36.6 µM | 76.3 µM | – | > 100 µM | > 100 µM | – | 39.6 µM | 36.1 | – | – | – | – | – | – | – | – | –
Cc1ccc(S(=O)(=O)N/N=C(\c2nc3ccc([N+](=O)[O-])cc3[nH]c2=O)C(O)c2ccccc2Cl)cc1 (stereo unspecified) | > 100 | > 100 µM | > 100 µM | > 100 µM | > 100 µM | > 100 µM | > 100 µM | > 100 | – | – | – | – | – | – | – | – | – | – | –
COc1ccc(CC(C)C(C)Cc2ccc(OC)c(OC)c2)cc1OC (stereo unspecified) | – | > 1400 µM | > 1400 µM | > 1400 µM | – | > 1400 µM | > 1400 µM | – | > 1400 µM | > 1400 | 126 | > 1400 | 1280 µM | > 1400 µM | > 1400 µM | 600 µM | 986 µM | – | –
CC(CC(=O)Nc1ccc(NC(=O)CC(C)N=NC(N)=S)cc1)N=NC(N)=S (stereo unspecified) | > 100 | > 100 µM | > 100 µM | > 100 µM | > 100 µM | > 100 µM | > 100 µM | > 100 | – | – | – | – | – | – | – | – | – | – | –
CC1(C)CC[C@H](C2=CC(=O)c3c(O)ccc(O)c3C2=O)O1 | – | 2.57 µM and 1.3 µM and 0.579 µM | 1.66 µM and 0.388 µM and 0.227 µM | 3.45 µM and 2.55 µM and 0.69 µM | 3.39 µM and 3.15 µM and 0.703 µM | 30 µM and 10 µM | 11.8 µM and 3.03 µM and 3.95 µM | – | 2.79 µM and 8.31 µM | 0.837 | – | 0.33 | 1.08 µM and 0.344 µM and 0.205 µM | 0.632 µM and 0.144 µM and 0.139 µM | 1.64 µM and 1.27 µM and 0.252 µM | 9.2 µM and 3.48 µM and 3.31 µM | 4.7 µM and 1.48 µM and 1.35 µM | 7.31 µM and 1.32 µM and 0.752 µM | 1.83 µM and 1.72 µM and 0.265 µM
COCCOCCOCc1n(Cc2ccc3ccccc3n2)c2ccccc2[n+]1Cc1ccc2ccccc2c1 | – | 2.06 µM | 0.876 µM | 5.68 µM | – | 10.6 µM | 10.8 µM | – | 1.45 µM | 1.31 | 0.356 | 0.339 | 0.402 µM | 0.281 µM | 2.04 µM | 0.748 µM | 1.27 µM | – | –
NC(=O)/C=C/C(=O)O | > 5000 | > 5000 µM | > 5000 µM | > 5000 µM | > 5000 µM | > 5000 µM | – | > 5000 | – | – | – | – | – | – | – | – | – | – | –
O=C1C(SCCO)=C(SCCO)C(=O)c2ccccc21 | – | 9.54 µM | 3.27 µM | 2.26 µM | – | 3.7 µM | 3.08 µM | – | 4.15 µM | 0.348 | – | – | – | – | – | – | – | – | –
CNC(=O)c1cc2c(Oc3ccc(NC(=O)C4(C(=O)Nc5ccc(F)cc5)CC4)cc3)ccnc2cc1OC | – | 14.2 µM | 9.13 µM | > 100 µM | – | 16.9 µM | > 100 µM | – | > 100 µM | 6.64 | 2.41 | 2.28 | 3.23 µM | 2.23 µM | 2.31 µM | 2.82 µM | 3.39 µM | – | –
CCN(CC)CC(=O)N1CCc2c([nH]c3ccccc23)C1c1cccnc1 (stereo unspecified) | > 100 | > 100 µM | – | > 100 µM | > 100 µM | > 100 µM | > 100 µM | > 100 | – | – | – | – | – | – | – | – | – | – | –
O=C1C=C(O)c2[nH]c(=O)ccc2C1=O | > 100 | > 100 µM | > 100 µM | > 100 µM | – | > 100 µM | > 100 µM | – | – | – | – | – | – | – | – | – | – | – | –
CC(=O)N[C@H](C(=O)N[C@@H](CCCNC(=N)N)C(=O)N[C@@H](CCCCN)C(=O)N[C@@H](CCCNC(=N)N)C(=O)N[C@]1(C)CCCCCC/C=C\CCC[C@@](C)(C(=O)N[C@@H](CCCNC(=N)N)C(=O)N[C@@H](CCC(=O)O)C(=O)N[C@@H](CC(C)C)C(=O)N[C@H](C(=O)N[C@@H](CCC(=O)O)C(N)=O)C(C)C)NC(=O)[C@H](CCC(N)=O)NC(=O)[C@H](CC(C)C)NC(=O)[C@H](CC(C)C)NC(=O)[C@H](CCCNC(=N)N)NC(=O)[C@H](CCCNC(=N)N)NC(=O)[C@H](CC(C)C)NC1=O)C(C)C | – | 37.6 µM | 4.54 µM | 28.1 µM | – | 27.6 µM | 23.2 µM | – | > 50 µM | 4.28 | 3.68 | 1.42 | 12 µM | 1.3 µM | 8.06 µM | 3.4 µM | 1.75 µM | – | –
CC1(C)N=C(N)N=C(N)N1c1ccc(OCC(=O)Nc2ccccc2)c(Cl)c1 | – | > 100 µM | > 100 µM | > 100 µM | – | > 71.8 µM | > 100 µM | – | > 100 µM | > 100 | > 100 | 0.522 | 0.502 µM | 18.3 µM | 62.9 µM | 0.0916 µM | 35 µM | – | –
CCN(CC)CCNC(=O)c1cn2ncnc(Oc3ccc(NC(=O)Nc4ccc(Cl)c(C(F)(F)F)c4)c(F)c3)c2c1C | – | 3.18 µM | 3.16 µM | 3.04 µM | – | 3.44 µM | 3.34 µM | – | 3.28 µM | 3.02 | 1.63 | 1.57 | 1.48 µM | 1.44 µM | 1.68 µM | 1.77 µM | 1.92 µM | – | –
Cn1c(/C(C#N)=C/c2ccc3ccccc3c2)cc2ccccc21 | – | > 100 µM | > 26.1 µM | > 100 µM | – | > 100 µM | > 100 µM | – | > 100 µM | 0.109 | 0.46 | 0.0317 | 0.0774 µM | 0.309 µM | 0.125 µM | 0.247 µM | 0.471 µM | – | –
CN(C)Cc1c[nH]c2c(NCCN)c3c(c(NCCN)c12)C(=O)c1ccccc1C3=O | – | 5.29 µM | – | 9.04 µM | – | 16.2 µM | 9.36 µM | – | 2.86 µM | 5.2 | 0.949 | 1.88 | 0.625 µM | 7.36 µM | 2.12 µM | 3.39 µM | 2.9 µM | – | –
